According to patent publication US12630571B2, “Crystal form of L-glufosinate and preparation method and use thereof” (JIANGSU SEVENCONTINENT GREEN TECHNOLOGY RESEARCH INSTITUTE …, priority 2022, dated 2026):

Legend:
Stability test (storage) = assay type: physicochemical; conditions: for Appearance (change after storage) / Crystal form (change after storage) / Weight change (%): humidity 65%; for stability (in words): compared with the crystal forms in CN111065270A
Protocol: Experimental method: The crystal forms A, B, and C were stored at a temperature of 60° C. for 7 days, the crystal form changes were re-measured, and the specific results were shown in Table 9.
The crystals obtained in Embodiments 4-9 were stored for 48 days at 25° C. and 60° C., respectively, the crystal form changes were re-measured, and the specific results were shown in Table 10.

[1] = DSC heat absorption and decomposition temperatures (high temperature stability); assay type: physicochemical; conditions: for Peak: DSC endothermic peak temperature; for Start of heat absorption: DSC
Protocol: (§1) In the present application, the test instruments and conditions used in the experiment are as follows: • 1. The crystal form of the product was analyzed by X-ray powder diffractometer (XRD, Rigaku D/Max-2500 type, Cu Kα radiation, λKα=0.15406 nm), the emission voltage and current were 40 kV and 100 mA, respectively, and the scanning range was 2-40°, the scan step size was 0.02°, and the scan rate was 8°/min. • 2. Differential Scanning calorimetry (DSC) and Thermogravimetric Analysis (TGA): DSC and TGA analyses were performed using a TGA/DSC Model 1 instrument from Mettler Toledo. The DSC measurement method was as follows: take 5-10 mg of the sample into an aluminum crucible, put it into the instrument, set the nitrogen flow rate to 50 ml/min, 200 ml/min, and increase the temperature from 30° C. to 200° C. at a rate of 10° C./min, and analysis was performed using STAR software from Mettler Toledo. The TGA measurement method was as follows: take 5-10 mg of the sample into an aluminum crucible, put it into the instrument, set the nitrogen flow rate to 20 ml/min, 50 ml/min, and increase the temperature from 30° C. to 200° C. at a rate of 10° C./min, and analysis was performed using STAR software from Mettler Toledo.
For the crystal form A, crystal form B, crystal form D and crystal form E of L-glufosinate ammonium, the data comparison of its high temperature stability were shown in Table 6.

Hygroscopicity test = assay type: physicochemical; conditions: 48 h; for Weight change (%): 100 g solid
Protocol: Experimental scheme: 100 g of solids were placed under different humidity for 48 h, and re-measured whether there was a significant change in their quality, and visually inspected whether there was a significant change in their appearance, so as to determine whether the crystal form had hygroscopicity, and the specific results of the crystal forms A, B, and C were shown in Table 7, and the specific results of the crystal forms D and E were shown in Table 8.

Alopecurus aequalis = assay: Field efficacy experiment, plant control effect; assay type: in vivo; conditions: 10% aqueous solution, 120 mL/mu, 7 days after treatment
Protocol: (§2) The combination of preparation processing and field efficacy test was adopted below.
(§3) The above-mentioned formulations were prepared with the crystals of the embodiments of the present disclosure and the crystal form A in the patent CN111065270A respectively for field efficacy experiments. It was detected that the physical and chemical properties of the aqueous solution products prepared by each crystal form were stable and met the needs of production and use, and at the same time, field experiments were carried out on different weeds. The dosage was 120 mL/mu.
(§4) Referring to the “Pesticide-Guidelines for the field efficacy trials”, 5 sites were investigated in each plot, each site was 1 square meter, and the types of weeds, the total number of plants, the symptoms of poisoning, the number of dead plants, etc. were recorded for each treatment 7 days after the treatment, and then the results of the plant control effect were counted, and the weed mortality was calculated and counted specifically.

Euphorbia helioscopia = assay: Field efficacy experiment, plant control effect; assay type: in vivo; conditions: 10% aqueous solution, 120 mL/mu, 7 days after treatment
Protocol: as §2, §3, §4

Bluegrass = assay: Field efficacy experiment, plant control effect; assay type: in vivo; conditions: 10% aqueous solution, 120 mL/mu, 7 days after treatment
Protocol: as §2, §3, §4

Rumex = assay: Field efficacy experiment, plant control effect; assay type: in vivo; conditions: 10% aqueous solution, 120 mL/mu, 7 days after treatment
Protocol: as §2, §3, §4

[2] = Thermogravimetric analysis (TGA); assay type: physicochemical
Protocol: as §1

[3] = test system: weeds such as Rumex, Alopecurus aequalis, Euphorbia helioscopia, and bluegrass; assay: Field efficacy experiment, summary statements over all weeds; assay type: in vivo; conditions: difference in plant control effect
Protocol: as §2, §3, §4

[4] = listed as Crystal form A of L-glufosinate ammonium
[5] = listed as Crystal form A of Embodiment 1 of the present disclosure
[6] = listed as Crystal form B of L-glufosinate ammonium
[7] = listed as Crystal form B of Embodiment 2 of the present disclosure
[8] = listed as Crystal form E of L-glufosinate ammonium
[9] = listed as Crystal form E of Embodiment 5 of the present disclosure
[10] = listed as Crystal form E of L-Glufosinate Ammonium
[11] = listed as Crystal form D of L-glufosinate ammonium
[12] = listed as Crystal form D of Embodiment 4 of the present disclosure
[13] = listed as Crystal form D of L-Glufosinate Ammonium

Q: For CP(=O)(O)CC[C@H](N)C(=O)O.N [Crystal form A, L-glufosinate ammonium], which “Appearance (change after storage)” value (Stability test (storage); 60° C., 7 days) is on record?
A: Its value is “Unchanged”.

Q: And the “Crystal form (change after storage)” value (Stability test (storage); 60° C., 7 days)?
A: The value was “Unchanged”.

Q: And the “stability (in words)” value (Stability test (storage))?
A: Its value is “excellent stability”.

Q: What about the Peak [1, 4] of the same molecule?
A: Its Peak is 129° ° C.

Q: And the “Start of heat absorption” value [1, 4]?
A: The value was 110° ° C.

Q: What about the “high temperature stability (in words)” value ([1]; versus the ammonium salt crystal forms in the existing patent) of the same molecule?
A: Its value is “better high temperature stability”.

Q: What about the “Weight change (%)” value (Hygroscopicity test; 20° C., humidity 65%, listed as A) of the same molecule?
A: Its value is “+0.02%”.

Q: And the “Weight change (%)” value (Hygroscopicity test; 20° C., humidity 80%, listed as A)?
A: The value was “+1.45%”.

Q: What about the “Plant control effect (%) Alopecurus aequalis” value (Alopecurus aequalis; [5]) of the same molecule?
A: The value was 80%.

Q: And the “Plant control effect (%) Euphorbia helioscopia” value (Euphorbia helioscopia; [5])?
A: Its value is 80%.

Q: And the “Plant control effect (%) Bluegrass” value (Bluegrass; [5])?
A: Its value is 80%.

Q: Which Peak [1, 6] does the source give for CP(=O)(O)CC[C@H](N)C(=O)O.N [Crystal form B, L-glufosinate ammonium] here?
A: The Peak was 134° ° C.

Q: And the “Start of heat absorption” value [1, 6]?
A: The value was 125° ° C.

Q: What about the “Weight change (%)” value (Hygroscopicity test; 20° C., humidity 65%, listed as B) of the same molecule?
A: The value was “+0.03%”.

Q: What about the “Weight change (%)” value (Hygroscopicity test; 20° C., humidity 80%, listed as B) of the same molecule?
A: Its value is “+1.55%”.

Q: And the “Plant control effect (%) Rumex” value (Rumex)?
A: The value was 100%.

Q: What about the “Plant control effect (%) Alopecurus aequalis” value (Alopecurus aequalis; [7]) of the same molecule?
A: Its value is 85%.

Q: What about the “Plant control effect (%) Euphorbia helioscopia” value (Euphorbia helioscopia; [7]) of the same molecule?
A: The value was 80%.

Q: What about the “Plant control effect (%) Bluegrass” value (Bluegrass; [7]) of the same molecule?
A: Its value is 80%.

Q: Which results are given for CP(=O)(O)CC[C@H](N)C(=O)O.N [Crystal form E, L-glufosinate ammonium]?
A: Appearance (change after storage) (Stability test (storage); 25° C., 48 days): Unchanged; Crystal form (change after storage) (Stability test (storage); 25° C., 48 days): Unchanged; Weight change (%) (Stability test (storage); 25° C., 48 days, listed as Embodiment 5): +0.02%; Weight change (%) (Stability test (storage); 25° C., 48 days, listed as Embodiment 8): +0.02%; Weight change (%) (Stability test (storage); 25° C., 48 days, listed as Embodiment 9): +0.02%; Weight change (%) (Stability test (storage); 60° C., 48 days, listed as Embodiment 5): +0.01%; Weight change (%) (Stability test (storage); 60° C., 48 days, listed as Embodiment 8): +0.02%; Weight change (%) (Stability test (storage); 60° C., 48 days, listed as Embodiment 9): +0.02%; Peak [1, 8]: 185.833° ° C.; Start of heat absorption [1, 8]: 147° ° C.; Weight change (%) (Hygroscopicity test; 25° C., humidity 65%, listed as Embodiment 5): +0.02%; Weight change (%) (Hygroscopicity test; 25° C., humidity 65%, listed as Embodiment 8): +0.02%; Weight change (%) (Hygroscopicity test; 25° C., humidity 65%, listed as Embodiment 9): +0.02%; Weight change (%) (Hygroscopicity test; 25° C., humidity 80%, listed as Embodiment 5): +1.23%; Weight change (%) (Hygroscopicity test; 25° C., humidity 80%, listed as Embodiment 8): +1.15%; Weight change (%) (Hygroscopicity test; 25° C., humidity 80%, listed as Embodiment 9): +1.18%; Plant control effect (%) Alopecurus aequalis (Alopecurus aequalis; [9]): 85%; Plant control effect (%) Euphorbia helioscopia (Euphorbia helioscopia; [9]): 90%; Plant control effect (%) Bluegrass (Bluegrass; [9]): 85%; temperature below which the weight of the crystal was basically unchanged [2, 10]: 95.5 °C; temperature from which weight decreased rapidly (decomposition) [2, 10]: 226.5 °C; temperature from which weight started to decrease slowly (release of ammonia gas) [2, 10]: 147 °C; slow weight decrease ([2]; starting at 95.5° C.): 1.2%

Q: Which “Start of heat absorption” value [1] does the source give for CP(=O)(O)CCC(N)C(=O)O.N (stereo not drawn) [Crystal form in CN113831364A, reference compound] here?
A: Its value is 104° ° C.

Q: What about the Peak [1] of the same molecule?
A: The Peak was 115° ° C.

Q: Which results are given for CP(=O)(O)CC[C@H](N)C(=O)O [Crystal form C, L-glufosinate]?
A: Appearance (change after storage) (Stability test (storage); 60° C., 7 days): Unchanged; Crystal form (change after storage) (Stability test (storage); 60° C., 7 days): Unchanged; stability (in words) (Stability test (storage)): excellent stability; Weight change (%) (Hygroscopicity test; 20° C., humidity 65%): +0.02%; Weight change (%) (Hygroscopicity test; 20° C., humidity 80%): +1.54%

Q: For CP(=O)(O)CC[C@H](N)C(=O)O.N [Crystal form D, L-glufosinate ammonium], which “Weight change (%)” value (Stability test (storage); 25° C., 48 days, listed as Embodiment 4) is on record?
A: The value was “+0.03%”.

Q: And the “Weight change (%)” value (Stability test (storage); 25° C., 48 days, listed as Embodiment 6)?
A: Its value is “+0.03%”.

Q: What about the “Weight change (%)” value (Stability test (storage); 25° C., 48 days, listed as Embodiment 7) of the same molecule?
A: The value was “+0.01%”.

Q: What about the “Appearance (change after storage)” value (Stability test (storage); 60° C., 48 days) of the same molecule?
A: The value was “Unchanged”.

Q: And the “Crystal form (change after storage)” value (Stability test (storage); 60° C., 48 days)?
A: Its value is “Unchanged”.

Q: And the “Weight change (%)” value (Stability test (storage); 60° C., 48 days, listed as Embodiment 4)?
A: The value was “+0.02%”.

Q: What about the “Weight change (%)” value (Stability test (storage); 60° C., 48 days, listed as Embodiment 6) of the same molecule?
A: The value was “+0.02%”.

Q: What about the “Weight change (%)” value (Stability test (storage); 60° C., 48 days, listed as Embodiment 7) of the same molecule?
A: The value was “+0.01%”.

Q: What about the “storage stability (in words)” value (Stability test (storage); at 25° C. and 60° C.) of the same molecule?
A: The value was “excellent storage stability”.

Q: And the “efficacy higher than other crystal forms of the ammonium salt” value [3]?
A: Its value is “about 5%”.

Q: What about the Peak [1, 11] of the same molecule?
A: Its Peak is 179.83° ° C.

Q: What about the “Start of heat absorption” value [1, 11] of the same molecule?
A: Its value is 161.84° ° C.

Q: And the Appearance change (Hygroscopicity test; 25° C., humidity 65%)?
A: The Appearance change was “Unchanged”.

Q: What about the “Weight change (%)” value (Hygroscopicity test; 25° C., humidity 65%, listed as Embodiment 4) of the same molecule?
A: The value was “+0.03%”.

Q: And the “Weight change (%)” value (Hygroscopicity test; 25° C., humidity 65%, listed as Embodiment 6)?
A: The value was “+0.03%”.

Q: And the “Weight change (%)” value (Hygroscopicity test; 25° C., humidity 65%, listed as Embodiment 7)?
A: The value was “+0.01%”.

Q: And the Appearance change (Hygroscopicity test; 25° C., humidity 80%)?
A: The Appearance change was “Unchanged”.

Q: What about the “Weight change (%)” value (Hygroscopicity test; 25° C., humidity 80%, listed as Embodiment 4) of the same molecule?
A: The value was “+1.12%”.

Q: What about the “Weight change (%)” value (Hygroscopicity test; 25° C., humidity 80%, listed as Embodiment 6) of the same molecule?
A: The value was “+1.17%”.

Q: What about the “Weight change (%)” value (Hygroscopicity test; 25° C., humidity 80%, listed as Embodiment 7) of the same molecule?
A: The value was “+1.12%”.

Q: And the “Plant control effect (%) Alopecurus aequalis” value (Alopecurus aequalis; [12])?
A: Its value is 86%.

Q: What about the “Plant control effect (%) Euphorbia helioscopia” value (Euphorbia helioscopia; [12]) of the same molecule?
A: Its value is 85%.

Q: What about the “Plant control effect (%) Bluegrass” value (Bluegrass; [12]) of the same molecule?
A: The value was 85%.

Q: What about the “temperature below which the weight of the crystal was basically unchanged” value [2, 13] of the same molecule?
A: The value was 139.5 °C.

Q: What about the “temperature from which weight decreased rapidly (decomposition)” value [2, 13] of the same molecule?
A: The value was 206.5 °C.

Q: What about the “temperature from which weight started to decrease slowly (release of ammonia gas)” value [2, 13] of the same molecule?
A: Its value is 139.5 °C.
